Experimental data reported in patent publication US8318950B2, “N-acyl amino acid derivatives, a method for the preparation thereof, a pharmaceutical composition and use thereof as anti-allergic, anti-inflammatory and hypolipidemic agents” (Otkrytoe Aktsionernoe Obschestvo-Otechestvennye Lekarstva, priority 2005, dated 2012).
“And” between values parts separate entries of the source, which are not always exact repeats. Identical values can stand only once.

Tested on: hypercholesterolemia in Wistar rats
Test: Model of hypercholesterolemia in rats (oral cholesterol loading)
Format: in vivo, rat
Method: The study was carried out on male Wistar rats weighing 200±20 g. Hyperlipidemia was induced by oral administration of cholesterol loading, oily cholesterol suspension:
olive oil (Acorsa, Spain)—5 ml/kg weigh of animals;
cholesterol (Sigma, USA)—1 g/kg weight;
sodium cholate (Sigma, USA)—100 mg/kg weight.
As a reference preparation, the preparation from the group of statines “Mevacor” (Lovastatine) manufactured by the firm Merck Sharp & Dohn was used at dose 40 mg/kg. Cholesterol suspension was administered daily in the morning for 10 days. The compounds tested (at dose 500 μg/kg) and the reference preparation (at dose 40 mg/kg) were administered to the animals togester with cholesterol suspension for 10 days. All the animals received a standard briquetted forage.
The animals were divided into the following groups:
“Control”—intact animals (n=5);
“Cholesterol”—rats that orally received cholesterol loading (n=10);
“Lovastatine”—rats that orally received cholesterol loading and Lovastatine (n=10);
“Compound IV”—rats that orally received cholesterol loading and the tested compound IV (n=10).
Blood was sampled at days 5, 8 and 10 of the experiment.
Statistical processing of the hypolipidemic action data of the tested substances was carried out with regard to the “Cholesterol” group (Table 13).
Experimental groups included:
1) “Cholesterol”—rats orally administered with oily cholesterol suspension for 10 days;
2) “Compound IV”—rats orally administered with oily cholesterol suspension and the tested compound N;
3) “Compound IV—1Na”—rats orally administered with oily cholesterol suspension and the tested mono-sodium salt of compound N;
4) “Compound IV—2Na”—rats orally administered with oily cholesterol suspension and the tested di-sodium salt of compound N;
5) “Compound V—1Na”—rats orally administered with oily cholesterol suspension and the tested mono-sodium salt of the compound V;
6) “Compound III—1Na”—rats orally administered with oily cholesterol suspension and the tested mono-sodium salt of the compound III;
7) “Compound II—1Na”—rats orally administered with oily cholesterol suspension and the tested mono-sodium salt of the compound II;
8) “Sim”—rats orally administered with oily cholesterol suspension and Simvastatine;
9) control—intact rats before beginning the test.
At day 10 of the test blood samples were taken following decapitation of the animals. The animals fasted for 12 hours prior to decapitation.
Blood serum total cholesterol, triglycerides and high density lipoprotein cholesterol (HDLC) were measured. Low and very low density lipoprotein cholesterol was calculated by the difference between total cholesterol and HDL cholesterol.
Blood serum total cholesterol and triglycerides were determined using the enzymatic methods.
Cholesterol level in high density lipoproteins (α-LP) was determined using the precipitation method of LDL and VLDL with phosphotungstic acid and magnesium ions.
Data in the tables are presented as a mean value±standard error. Significance of differences between the groups “cholesterol” and “preparation.” was assessed by the two-sampled Student's t-test.

[1] = day 5 of the experiment (Table 15)
[2] = day 5 of the experiment (Table 15), oral with oily cholesterol suspension
[3] = day 8 of the experiment (Table 16)
[4] = day 10 of the experiment (Table 17)
[5] = day 10 of the experiment (Table 21), Monosodium Salt
[6] = day 5 of the experiment (Table 19)
[7] = day 5 of the experiment (Table 19, n = 12 series)
[8] = day 8 of the experiment (Table 20)
[9] = day 10 of the experiment (Table 21)
[10] = rats with cholesterol loading, vs Cholesterol group
[11] = oral 10 days with cholesterol loading, tested compound 500 μg/kg, reference 40 mg/kg (Table 13)

Compound: O=C([O-])CCCC(=O)N[C@@H](Cc1c[nH]cn1)C(=O)O.[Na+] [Compound IV-1Na, N^α-glutaryl-L-histidine Monosodium Salt]
- Total cholesterol, HDL [1]: 33.1 ± 1.4 mg/100 ml
- Total cholesterol, LDL + VLDL [1]: 38.8 ± 2.9 mg/100 ml
- Triglycerides, Serum [1]: 106.6 ± 6.2 mg/100 ml
- Total cholesterol, Serum [2]: 72.0 ± 3.0 mg/100 ml
- Total cholesterol, HDL (day 5 of the experiment (Table 19), Monosodium Salt): 60.7 ± 3.1 mg/100 ml and 55.1 ± 2.8 mg/100 ml
- Total cholesterol, Serum (day 5 of the experiment (Table 19, n = 12 series), Monosodium Salt): 94.4 ± 3.4 mg/100 ml and 96.9 ± 4.5 mg/100 ml
- Total cholesterol, HDL [3]: 37.1 ± 1.4 mg/100 ml
- Total cholesterol, LDL + VLDL [3]: 61.9 ± 6.6 mg/100 ml
- Total cholesterol, Serum [3]: 99.1 ± 6.0 mg/100 ml
- Triglycerides, Serum [3]: 146.4 ± 11.2 mg/100 ml
- Total cholesterol, HDL [4]: 37.7 ± 1.0 mg/100 ml
- Total cholesterol, LDL + VLDL [4]: 59.7 ± 7.2 mg/100 ml
- Total cholesterol, Serum [4]: 97.4 ± 7.1 mg/100 ml
- Triglycerides, Serum [4]: 132.5 ± 8.4 mg/100 ml
- Total cholesterol, HDL [5]: 53.4 ± 2.2 mg/100 ml and 52.9 ± 3.8 mg/100 ml
- Total cholesterol, LDL + VLDL [5]: 68.7 ± 10.1 mg/100 ml and 70.5 ± 8.9 mg/100 ml
- Total cholesterol, Serum [5]: 122.1 ± 9.8 mg/100 ml and 123.3 ± 7.3 mg/100 ml

Compound: O=C([O-])CCCC(=O)N[C@@H](Cc1c[nH]cn1)C(=O)[O-].[Na+].[Na+] [Compound IV” 2Na, N^α-glutaryl-L-histidine disodium salt]
- Total cholesterol, HDL [1]: 35.0 ± 1.3 mg/100 ml
- Total cholesterol, LDL + VLDL [1]: 44.3 ± 2.7 mg/100 ml
- Triglycerides, Serum [1]: 88.3 ± 4.8 mg/100 ml
- Total cholesterol, Serum [2]: 80.6 ± 2.8 mg/100 ml
- Total cholesterol, HDL [3]: 35.9 ± 1.8 mg/100 ml
- Total cholesterol, LDL + VLDL [3]: 54.3 ± 5.8 mg/100 ml
- Total cholesterol, Serum [3]: 90.2 ± 5.1 mg/100 ml
- Triglycerides, Serum [3]: 125.8 ± 9.4 mg/100 ml
- Total cholesterol, HDL [4]: 40.0 ± 1.9 mg/100 ml
- Total cholesterol, LDL + VLDL [4]: 57.3 ± 4.3 mg/100 ml
- Total cholesterol, Serum [4]: 97.9 ± 3.9 mg/100 ml
- Triglycerides, Serum [4]: 127.3 ± 6.2 mg/100 ml
- effect on serum total triglycerides (in words) (rats with cholesterol loading): lowered serum total triglyceride levels at days 5 and 10

Compound: O=C([O-])CCC(=O)N[C@@H](Cc1c[nH]cn1)C(=O)O.[Na+] [Compound V—1Na, N^α-succinyl-L-histidine Monosodium Salt]
- effect on serum total triglycerides (in words) (rats with cholesterol loading): ability thereof to lower serum total triglyceride levels

Compound: O=C(O)CCC(=O)N[C@@H](Cc1c[nH]c2ccccc12)C(=O)[O-].[Na+] [II-1Na, N^+-succinyl-L-tryptophane Monosodium Salt]
- Total cholesterol, HDL [6]: 49.5 ± 3.8 mg/100 ml
- Total cholesterol, LDL + VLDL [6]: 60.2 ± 10.6 mg/100 ml
- Triglycerides, HDL [6]: 32.6 ± 2.5 mg/100 ml
- Triglycerides, LDL + VLDL [6]: 48.2 ± 4.9 mg/100 ml
- Triglycerides, Serum [6]: 80.9 ± 5.5 mg/100 ml
- Total cholesterol, Serum [7]: 109.7 ± 9.4 mg/100 ml
- Total cholesterol, HDL [8]: 52.9 ± 4.1 mg/100 ml
- Total cholesterol, LDL + VLDL [8]: 87.9 ± 14.5 mg/100 ml
- Total cholesterol, Serum [8]: 140.8 ± 13.6 mg/100 ml
- Triglycerides, HDL [8]: 44.5 ± 2.5 mg/100 ml
- Triglycerides, LDL + VLDL [8]: 73.9 ± 15.4 mg/100 ml
- Triglycerides, Serum [8]: 111.6 ± 17.2 mg/100 ml
- Total cholesterol, HDL [9]: 54.7 ± 2.2 mg/100 ml
- Total cholesterol, LDL + VLDL [9]: 79.7 ± 12.6 mg/100 ml
- Total cholesterol, Serum [9]: 134.4 ± 12.5 mg/100 ml
- Triglycerides, HDL [9]: 38.9 ± 2.4 mg/100 ml
- Triglycerides, LDL + VLDL [9]: 69.6 ± 11.1 mg/100 ml
- Triglycerides, Serum [9]: 108.5 ± 11.3 mg/100 ml

Compound: O=C([O-])CCCC(=O)N[C@@H](Cc1c[nH]c2ccccc12)C(=O)O.[Na+] [III-1Na, N^α-glutaryl-L-tryptophan Monosodium Salt]
- Total cholesterol, HDL [6]: 49.0 ± 2.1 mg/100 ml
- Total cholesterol, LDL + VLDL [6]: 40.0 ± 5.4 mg/100 ml
- Triglycerides, HDL [6]: 30.0 ± 2.2 mg/100 ml
- Triglycerides, LDL + VLDL [6]: 57.4 ± 9.1 mg/100 ml
- Triglycerides, Serum [6]: 87.4 ± 9.4 mg/100 ml
- Total cholesterol, Serum [7]: 89.0 ± 5.0 mg/100 ml
- Total cholesterol, HDL [8]: 48.4 ± 2.7 mg/100 ml
- Total cholesterol, LDL + VLDL [8]: 60.4 ± 8.3 mg/100 ml
- Total cholesterol, Serum [8]: 108.8 ± 8.2 mg/100 ml
- Triglycerides, HDL [8]: 45.2 ± 3.2 mg/100 ml
- Triglycerides, LDL + VLDL [8]: 79.2 ± 7.7 mg/100 ml
- Triglycerides, Serum [8]: 124.4 ± 8.9 mg/100 ml
- Total cholesterol, HDL [9]: 48.8 ± 2.4 mg/100 ml
- Total cholesterol, LDL + VLDL [9]: 53.5 ± 7.3 mg/100 ml
- Total cholesterol, Serum [9]: 102.3 ± 6.9 mg/100 ml
- Triglycerides, HDL [9]: 34.3 ± 2.3 mg/100 ml
- Triglycerides, LDL + VLDL [9]: 75.0 ± 8.5 mg/100 ml
- Triglycerides, Serum [9]: 109.3 ± 10.5 mg/100 ml
- effect on HDL cholesterol (in words) (rats with cholesterol loading): did not change
- effect on serum total triglycerides (in words) (rats with cholesterol loading): did not change
- lowered cholesterol of the VLDL+LDL fractions [10]: 40%
- lowered total cholesterol [10]: 29%

Compound: CC[C@H](C)C(=O)O[C@H]1C[C@@H](C)C=C2C=C[C@H](C)[C@H](CC[C@@H]3C[C@@H](O)CC(=O)O3)[C@H]21 [Lovastatine, reference compound]
- Total cholesterol, CHDL [11]: 50.6 ± 1.3 mg/100 ml
- Total cholesterol, CLLD + CLVLD [11]: 49.9 ± 0.9 mg/100 ml
- Total cholesterol, Liver [11]: 2.41 ± 0.17 mg/g of tissue
- Total cholesterol, Serum [11]: 100.5 ± 6.7 mg/100 ml
- Triglycerids, Liver [11]: 6.25 ± 0.13 mg/g of tissue
- Triglycerids, Serum [11]: 93.6 ± 7.5 mg/100 ml

Compound: CCC(C)(C)C(=O)O[C@H]1C[C@@H](C)C=C2C=C[C@H](C)[C@H](CC[C@@H]3C[C@@H](O)CC(=O)O3)[C@H]21 [Sim, Simvastatine, reference compound]
- Total cholesterol, HDL [1]: 27.8 ± 2.7 mg/100 ml
- Total cholesterol, LDL + VLDL [1]: 43.0 ± 8.3 mg/100 ml
- Triglycerides, Serum [1]: 108.9 ± 6.9 mg/100 ml
- Total cholesterol, Serum [2]: 73.6 ± 7.3 mg/100 ml
- Total cholesterol, HDL [3]: 33.2 ± 1.8 mg/100 ml
- Total cholesterol, LDL + VLDL [3]: 66.9 ± 13.4 mg/100 ml
- Total cholesterol, Serum [3]: 100.1 ± 12.8 mg/100 ml
- Triglycerides, Serum [3]: 119.9 ± 10.5 mg/100 ml
- Total cholesterol, HDL [4]: 32.7 ± 1.2 mg/100 ml
- Total cholesterol, LDL + VLDL [4]: 61.2 ± 9.7 mg/100 ml
- Total cholesterol, Serum [4]: 93.9 ± 10.2 mg/100 ml
- Triglycerides, Serum [4]: 142.0 ± 5.4 mg/100 ml
- effect on HDL cholesterol (in words) (rats with cholesterol loading): did not effect
